Target: T1, IVDH (isovaleryl-CoA dehydrogenase), his-tagged recombinant T. brucei IVDH (Trypanosoma brucei, UniProt Q387A0)
T1 construct: gene Tb11.55.0026; lacks N-terminal 13 residues (gene positions 41 to 1234 bp), 6 His codons at 3' end, pET28, E. coli BL21(DE3) with GroEL-ES
T1 sequence (Q387A0 14-411): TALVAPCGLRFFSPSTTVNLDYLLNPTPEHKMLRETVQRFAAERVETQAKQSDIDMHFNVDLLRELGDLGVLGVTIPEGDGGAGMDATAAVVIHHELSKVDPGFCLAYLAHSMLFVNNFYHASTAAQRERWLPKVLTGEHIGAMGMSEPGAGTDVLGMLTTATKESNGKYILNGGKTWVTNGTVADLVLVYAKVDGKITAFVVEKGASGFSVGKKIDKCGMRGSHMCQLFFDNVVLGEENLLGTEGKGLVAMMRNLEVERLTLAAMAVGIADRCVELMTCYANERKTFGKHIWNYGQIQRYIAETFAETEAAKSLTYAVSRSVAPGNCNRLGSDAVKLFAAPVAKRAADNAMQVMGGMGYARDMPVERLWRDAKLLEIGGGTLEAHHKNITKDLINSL
Experiment: spectrophotometric dye-reduction assay ([…],6-dichloroindophenol, […] nm)
Assay type: biochemical
Details: isovaleryl-CoA 52.5 uM, phenazine methosulfate 1.5 mM, FAD 10 uM, 100 mM KPi pH 7.0, 25 °C

Compound: CC(C)CC(=O)SCCNC(=O)CCNC(=O)[C@H](O)C(C)(C)COP(=O)(O)OP(=O)(O)OC[C@H]1O[C@@H](n2cnc3c(N)ncnc32)[C@H](O)[C@@H]1OP(=O)(O)O [isovaleryl-CoA]
- spectrophotometric dye-reduction assay (2,6-dichloroindophenol, 600 nm): specific activity of the his-tagged recombinant T. brucei IVDH purified to homogeneity for its substrate
